Experimental data as given in US20240317689A1, “POTASSIUM CHANNEL MODULATOR, COMPOSITION AND APPLICATION” (NEUSHEN THERAPEUTICS (SHANGHAI) CO., LTD, priority 2021, published 2024).

Biological target: T1, KCNQ2/3 potassium ion channel (Homo sapiens, UniProt O43525+O43526)
T1 construct: expressed in transfected cells; host or cells: CHO cells (hKCNQ-CHO)
Assay: KCNQ2/3 potassium ion channel activation assay (whole-cell patch clamp, hKCNQ-CHO cells)
Format: cell-based
Conditions: for activation at 0.05 µM: test concentration 0.05 μM; for activation at 0.05 µM / activation at 3 µM: read-out: Enhancment % (current enhancement multiple)
Experimental: Example 64: KCNQ2/3 Potassium Ion Channel Activation Assay
hKCNQ-CHO cells were cultured at 37° C. in a humidified environment of 5% CO2.
• 2.1. Extracellular fluid (mM): NaCl 145, KCl 4, CaCl2 2, MgCl2 1, Glucose 10, HEPES 10. The pH value of the extracellular fluid was adjusted to 7.4 with NaOH, and the osmotic pressure was adjusted to about 295 mOsm. • 2.2. Intracellular fluid (mM (mmol/L)): KOH 31.25, KCl 120, EGTA 10, MgCl2 1.75, CaCl2 5.374, HEPES 10, Na-ATP 4. The pH value of the intracellular fluid was adjusted to 7.4 with HCl, and the osmotic pressure was adjusted to about 285 mOsm. • 2.3. The extracellular fluid should be prepared once a week, and the intracellular fluid should be stored at −20° C. after preparation.
The model positive reference compound Retigabine (RTG) was dissolved with 100% DMSO and configured as a 10 mM working solution. The test compounds were dissolved with 100% DMSO and configured as a 10 mM working solution. The final concentration of DMSO in the test solution should be less than 0.3%.
Whole-cell patch clamp was performed at room temperature. The electrical signals recorded with the EPC 10 USB amplifier (HEKA Elektronik, Germany) were filtered by a 3 kHz low-pass filter, and finally recorded in PatchMaster 2×90.5 software (HEKA Elektronik, Germany). At this step, the quality control standard was that the cell high-resistance sealing was greater than 500 MOhms, and the detection current was greater than 0.4 nA.
The recording electrodes were pulled out and polished with a vertical puller (NARISHIGE PC-10, Japan) using a borosilicate glass capillary (GC150tF-10, Harvard Apparatus Co., UK). At this step, the quality control standard was that the electrode resistance was between 2 MΩ and 5 MΩ.
During the recording process of the whole-cell patch clamp, a continuous perfusion system (BT100-2J, LongerPump, China) was used to continuously perfuse the extracellular fluid. The perfusion system was installed on the stage of an upright microscope (FN-S2N, Nikon, Japan), and the perfusion head was manually positioned under the microscope.
The voltage command for detecting the amplitude of hKCNQ current was as follows: the cell stepped from the clamping potential of −80 mV to −30 mV, and held for 1500 ms; and then the clamping voltage was lowered to −120 my and held for 500 ms; finally, the voltage returned to the clamping potential of −80 mV. The detection voltage command was repeated every 15,000 milliseconds, and the command was continuously executed during the compound test. The quality control standard for compound action stability was the current amplitude under 5 consecutive voltage commands, and the coefficient of variation of the current amplitude was <5%.
Data analysis was performed using PatchMaster 2×90.5 software (HEKA Elektronik, Germany) and Excel 2013 (Microsoft, USA) software. For each cell's patch clamp recording, the amplitude of the hKCNQ channel current (Itest) corresponding to the test compound concentration should be obtained. The enhanced channel current was obtained by subtracting the cell's original channel current (Icontrol) from Itest and dividing by Icontrol to obtain the current enhancement multiple. That is, the current enhancement multiple (Enhancment %)=(Itest −Icontrol)/Icontrol[…].

Structure (SMILES)	Enhancment % (activation activity on KCNQ2/3 potassium ion channel) (test concentration 3 μM, numeric value) [%]	activation at 0.05 µM [%]	activation at 3 µM (test concentration 3 μM) [%]
Cc1cc(N2CCCc3cc(OC(C(F)(F)F)C(F)(F)F)ccc3C2)cc(C)c1NC(=O)CC(C)(C)C [Compound 055, N-(4-(7-((1,1,1,3,3,3-hexafluoropropan-2-yl)oxy)-1,3,4,5-tetrahydro-2H-benzo[c]azepin-2-yl)-2,6-dimethylphenyl)-3,3-dimethylbutanamide]	–	–	> 100
Cc1cc(N2CCCc3cc(OCC4(C(F)(F)F)CC4)ccc3C2)cc(C)c1NC(=O)CC(C)(C)C [Compound 054, N-(2,6-dimethyl-4-(7-((1-(trifluoromethyl)cyclopropyl)methoxy)-1,3,4,5-tetrahydro-2H-benzo[c]azepin-2-yl)phenyl)-3,3-dimethylbutanamide]	–	–	> 100
Cc1cc(N2CCCc3cc(OCCC(F)(F)F)ccc3C2)cc(C)c1NC(=O)CC(C)(C)C [Compound 058, N-(2,6-dimethyl-4-(7-(3,3,3-trifluoropropoxy)-1,3,4,5-tetrahydro-2H-benzo[c]azepin-2-yl)phenyl)-3,3-dimethylbutanamide]	–	–	> 100
Cc1cc(N2CCCc3cc(OC45CC(C(F)F)(C4)C5)ccc3C2)cc(C)c1NC(=O)CC(C)(C)C [Compound 051, N-(4-(7-((3-(difluoromethyl)bicyclo[1.1.1]pentan-1-yl)oxy)-1,3,4,5-tetrahydro-2H-benzo[c]azepin-2-yl)-2,6-dimethylphenyl)-3,3-dimethylbutanamide]	–	–	> 100
Cc1cc(N2CCCc3cc(OC4CCCCC4)ccc3C2)cc(C)c1NC(=O)CC(C)(C)C [Compound 012, N-(4-(7-(cyclohexyloxy)-1,3,4,5-tetrahydro-2H-benzo[c]azepin-2-yl)-2,6-dimethylphenyl)-3,3-dimethylbutanamide]	–	–	> 100
Cc1cc(N2CCCc3cc(OC/C=C/C(F)(F)F)ccc3C2)cc(C)c1NC(=O)CC(C)(C)C [Compound 050, (E)-N-(2,6-dimethyl-4-(7-((4,4,4-trifluorobut-2-en-1-yl)oxy)-1,3,4,5-tetrahydro-2H-benzo[c]azepin-2-yl)phenyl)-3,3-dimethylbutanamide]	–	–	> 100
Cc1cc(N2CCCc3cc(OCCCCF)ccc3C2)cc(C)c1NC(=O)CC(C)(C)C [Compound 063, N-(4-(7-(4-fluorobutoxy)-1,3,4,5-tetrahydro-2H-benzo[c]azepin-2-yl)-2,6-dimethylphenyl)-3,3-dimethylbutanamide]	–	–	> 100
Cc1cc(N2CCCc3cc(OCCCC(F)(F)F)ccc3C2)cc(C)c1NC(=O)CC(C)(C)C [Compound 060, N-(2,6-dimethyl-4-(7-(4,4,4-trifluorobutoxy)-1,3,4,5-tetrahydro-2H-benzo[c]azepin-2-yl)phenyl)-3,3-dimethylbutanamide]	–	–	> 100
Cc1cc(N2CCCc3cc(OC4CCCC4)c(F)cc3C2)cc(C)c1NC(=O)CC(C)(C)C [Compound 044, N-(4-(7-(cyclopentyloxy)-8-fluoro-1,3,4,5-tetrahydro-2H-benzo[c]azepin-2-yl)-2,6-dimethylphenyl)-3,3-dimethylbutanamide]	–	–	> 100
Cc1cc(N2CCCc3cc(OCC(F)(F)C(F)F)ccc3C2)cc(C)c1NC(=O)CC(C)(C)C [Compound 057, N-(2,6-dimethyl-4-(7-(2,2,3,3-tetrafluoropropoxy)-1,3,4,5-tetrahydro-2H-benzo[c]azepin-2-yl)phenyl)-3,3-dimethylbutanamide]	–	–	> 100
Cc1cc(N2CCCc3cc(O[C@@H](C)C(F)(F)F)c(F)cc3C2)cc(C)c1NC(=O)CC(C)(C)C [Compound 036, (S)—N-(4-(8-fluoro-7-((1,1,1-trifluoropropan-2-yl)oxy)-1,3,4,5-tetrahydro-2H-benzo[c]azepin-2-yl)-2,6-dimethylphenyl)-3,3-dimethylbutanamide]	–	–	> 100
Cc1c(NC(=O)CC(C)(C)C)ccc(N2CCCc3cc(F)ccc3C2)c1F [Compound 029, N-(3-fluoro-4-(7-fluoro-1,3,4,5-tetrahydro-2H-benzo[c]azepin-2-yl)-2-methylphenyl)-3,3-dimethylbutanamide]	–	–	50 to 100
CCC(C)Oc1cc2c(cc1F)CN(c1cc(C)c(NC(=O)CC(C)(C)C)c(C)c1)CCC2 (centres unmarked) [Compound 039, N-(4-(7-(sec-butoxy)-8-fluoro-1,3,4,5-tetrahydro-2H-benzo[c]azepin-2-yl)-2,6-dimethylphenyl)-3,3-dimethylbutanamide]	–	–	> 100
Cc1cc(N2CCCc3cc(OCCCC(F)(F)C(F)(F)F)ccc3C2)cc(C)c1NC(=O)CC(C)(C)C [Compound 061, N-(2,6-dimethyl-4-(7-((4,4,5,5,5-pentafluoropentyl)oxy)-1,3,4,5-tetrahydro-2H-benzo[c]azepin-2-yl)phenyl)-3,3-dimethylbutanamide]	–	–	> 100
COC(Oc1ccc2c(c1)CCCN(c1cc(C)c(NC(=O)CC(C)(C)C)c(C)c1)C2)C(F)(F)F (centres unmarked) [Compound 052, N-(2,6-dimethyl-4-(7-(2,2,2-trifluoro-1-methoxyethoxy)-1,3,4,5-tetrahydro-2H-benzo[c]azepin-2-yl)phenyl)-3,3-dimethylbutanamide]	–	–	> 100

The remaining lines, values ahead:

Enhancment % (activation activity on KCNQ2/3 potassium ion channel) (test concentration 3 μM, numeric value) [%]	activation at 0.05 µM [%]	activation at 3 µM (test concentration 3 μM) [%]	Structure (SMILES)
41.39	–	–	Cc1cc(N2CCCc3cc(F)ccc3C2)cc(C)c1NC(=O)CC(C)(C)C [a, reference compound]
–	< 50	50 to 100	CSc1ccc2c(c1)CCCN(c1cc(C)c(NC(=O)CC(C)(C)C)c(C)c1)C2 [Compound 014, N-(2,6-dimethyl-4-(7-(methylthio)-1,3,4,5-tetrahydro-2H-benzo[c]azepin-2-yl)phenyl)-3,3-dimethylbutanamide]
–	–	> 100	COc1cc2c(cc1F)CN(c1cc(C)c(NC(=O)CC(C)(C)C)c(C)c1)CCC2 [Compound 038, N-(4-(8-fluoro-7-methoxy-1,3,4,5-tetrahydro-2H-benzo[c]azepin-2-yl)-2,6-dimethylphenyl)-3,3-dimethylbutanamide]
–	–	> 100	Cc1cc(N2CCCc3cc(S(C)(=O)=O)ccc3C2)cc(C)c1NC(=O)CC(C)(C)C [Compound 015, N-(2,6-dimethyl-4-(7-(methylsulfonyl)-1,3,4,5-tetrahydro-2H-benzo[c]azepin-2-yl)phenyl)-3,3-dimethylbutanamide]
–	–	> 100	Cc1cc(N2CCNc3cc(F)ccc3C2)cc(C)c1NC(=O)CC(C)(C)C [Compound 023, N-(4-(8-fluoro-1,2,3,5-tetrahydro-4H-benzo[e][1,4]diazepin-4-yl)-2,6-dimethylphenyl)-3,3-dimethylbutanamide]
–	–	> 100	Cc1cc(N2CCC3(CC3)c3cc(F)c(F)cc3C2)cc(C)c1NC(=O)CC(C)(C)C [Compound 049, N-(4-(7,8-difluoro-3,4-dihydrospiro[benzo[c]azepine-5,1′-cyclopropan]-2(1H)-yl)-2,6-dimethylphenyl)-3,3-dimethylbutanamide]
–	< 50	> 100	Cc1cc(N2CCCc3cc(OC(F)F)ccc3C2)cc(C)c1NC(=O)CC(C)(C)C [Compound 005, N-(4-(7-(difluoromethoxy)-1,3,4,5-tetrahydro-2H-benzo[c]azepin-2-yl)-2,6-dimethylphenyl)-3,3-dimethylbutanamide]
–	< 50	50 to 100	Cc1cc(N2CCC(C)(C)c3ccccc3C2)cc(C)c1NC(=O)CC(C)(C)C [Compound 017, N-(4-(5,5-dimethyl-1,3,4,5-tetrahydro-2H-benzo[c]azepin-2-yl)-2,6-dimethylphenyl)-3,3-dimethylbutanamide]
–	–	50 to 100	Cc1cc(N2CCC3(CC3)c3cc(F)ccc3C2)cc(C)c1NC(=O)CC(C)(C)C [Compound 022, N-(4-(7-fluoro-3,4-dihydrospiro[benzo[c]azepine-5,1′-cyclopropan]-2(1H)-yl)-2,6-dimethylphenyl)-3,3-dimethylbutanamide]
–	< 50	50 to 100	CCOc1ccc2c(c1)CCCN(c1cc(C)c(NC(=O)CC(C)(C)C)c(C)c1)C2 [Compound 002, N-(4-(7-ethoxy-1,3,4,5-tetrahydro-2H-benzo[c]azepin-2-yl)-2,6-dimethylphenyl)-3,3-dimethylbutanamide]
